Laboratory results taken from patent publication US20050159364A1, “Copper antagonist compounds” (priority 2003, published 2005).
Where “and” joins values, the source holds several entries; their conditions need not be identical. Equal entries are not always repeated. Entries after “also recorded” stand apart in the source; their conditions may differ. Structures can show the parent of a compound that is named as a salt. Where two headings read alike, the source gives them in different places. Marks after values point to notes of the source that are not given here. Values belong to the compound of their own block, whether it stands above or below them.

Columns and labels:
[1] = test system: STZ-treated and non-STZ-treated rats; conditions: for Serum Cu: trientine i.v. 0.1-100 mg.kg^−1 hourly, terminal sample; for Serum Fe: trientine i.v.
Source text: All animals were fasted overnight prior to surgery but continued to have ad libitum access to deionized water. […] The femoral artery and vein were cannulated with a solid-state blood pressure transducer (Mikrotip™ 1.4F, Millar Instruments, Texas, USA) and a saline filled PE 50 catheter respectively. The ureters were exposed via a midline abdominal incision, cannulated using polyethylene catheters (external diameter 0.9 mm, internal diameter 0.5 mm) and the wound sutured closed. The trachea was cannulated and the animal ventilated at 70-80 breaths.min^−1 with air supplemented with O2 (Pressure Controlled Ventilator, Kent Scientific, Conn., USA). The respiratory rate and end-tidal pressure (10-15 cmH2O) were adjusted to maintain end-tidal CO2 at 35-40 mmHg (SC-300 CO2 Monitor, Pryon Corporation, Wisconsin, USA). Body temperature was maintained at 37° C. throughout surgery and the experiment by a heating pad. Estimated fluid loss was replaced with intravenous administration of 154 mmol.l^−1 NaCl solution at a rate of 5 ml.kg^−1.h^−1.
(§1) Following surgery and a 20 min stabilization period, the experimental protocol was started. […] Control animals received an equivalent volume of saline. Urine was collected in 15 min aliquots throughout the experiment in pre-weighed polyethylene epindorf tubes. At the end of the experiment a terminal blood sample was taken by cardiac puncture and the separated serum stored at −80° C. until future analysis. Hearts were removed through a rapid mid-sternal thoracotomy and processed as described below.
Urine and tissue analysis was carried out as follows. Instrumentation:A Perkin Elmer (PE) Model 3100 Atomic Absorption Spectrophotometer equipped with a PE HGA-600 Graphite Furnace and PE AS-60 Furnace Autosampler was used for Cu and Fe determninations in urine. Deuterium background correction was employed. A Cu or Fe hollow-cathode lamp (Perkin Elmer Corporation) was used and operated at either 10 W (Cu) or 15 W (Fe). The 324.8 nm atomic line was used for Cu and the 248.3 nm atomic line for Fe. The slit width for both Cu and Fe was 0.7 nm. Pyrolytically coated graphite tubes were used for all analyses. The injection volume was 20 μL. A typical graphite furnace temperature program is shown below:
Sample pretreatment was carried out as follows. Urine:Urine was collected in pre-weighed 1.5 ml micro test tubes (eppendorf). After reweighing, the urine specimens were centrifuged and the supernatant diluted 25:1 with 0.02 M 69% Aristar grade HNO3. The sample was stored at 4° C. prior to GF-AAS analysis. If it was necessary to store a sample for a period in excess of 2 weeks, it was frozen and kept at −20° C. Serum:Terminal blood samples were centrifuged and serum treated and stored as per urine until analysis. From the trace metal content of serum from the terminal blood sample and urine collected over the final hour of the experiment, renal clearance was calculated using the following equation: [formula]

[2] = test system: humans with T2DM or matched controls; conditions: for Mean CU Losses, fecal, Post-Tment: n = 10, oral 2.4 g once daily
Protocol: Total metal balance studies were performed in a residential metabolic unit. Total fecal outputs were collected daily for 12 days, freeze dried, and analyzed by ICP-MS for content of Cu, Fe, Zn, Ca, Mg, Mn, Cr, […] and Se.

[3] = 0.9% saline, 0.67-670 mg/ml, four months at 4° C.
Protocol: The concentrations of the stock formulations were:0.67 mg/ml, 6.7 mg/ml, 67 mg/ml, and 670 mg/ml. The formulation was then administered to the rats in doses of 0.1 mg/kg, 1 mg/kg, 10 mg/kg, and 100 mg/kg to the animals respectively.

[4] = test system: STZ-treated and non-STZ-treated rats; conditions: highest dose 100 mg/kg i.v., 2 min following administration
Protocol: as §1
Mean arterial pressure (MAP), heart rate (HR, derived from the MAP waveform) oxygen saturation (Nonin 8600V Pulse Oximeter, Nonin Medical Inc., Minnesota, USA) and core body temperature, were all continuously monitored throughout the experiment using a PowerLab/16s data acquisition module (AD Instruments, Australia).
Following surgery and a 20 min stabilization period, the experimental protocol was started. […] Urine was collected throughout the experiment in 15 min aliquots.

[5] = test system: STZ-treated and non-STZ-treated rats; conditions: for Cu content of heart tissue / Fe content of heart tissue: mean ± SEM
Protocol: Methods were carried out as follows. Spectrophotometric analysis was conducted as described in Example 2. Cu, Fe and Zn in tissue digests were determined at Hill Laboratories (Hamilton, New Zealand) using either a PE Sciex Elan-6000 or PE Sciex Elan-6100 DRC ICP-MS.
Sample pre-treatment was carried out as follows. Heart:Following removal from the animal, the heart was cleaned of excess tissue, rinsed in buffer to remove excess blood, blotted dry and a wet ventricular weight recorded. Using titanium instruments a segment of left ventricular muscle was dissected and placed in a pre-weighed 5.0 ml polystyrene tube. The sample was freeze-dried overnight to constant weight before 0.45 ml of 69% Aristar grade HNO3 was added. The sample tube was heated in a water bath at 65° C. for 60 minutes. The sample was brought to 4.5 ml with Milli-Q H2O. The resulting solution was diluted 2:1 in order to reduce the HNO3 concentration below the maximum permitted for ICP-MS analysis.

[6] = test system: male humans with T2DM and matched non-diabetic controls
Source text: Methods were as follows. Human studies were approved by institutional ethics and regulatory committees. We measured urinary metal excretion in human males with T2DM or matched non-diabetic controls, baseline information on which is shown in Table 9, in a randomized, double blind, placebo-controlled trial. Males with uncomplicated T2DM (Table 9) underwent 12-d elemental balance studies in a fully residential metabolic unit. All foods and beverages were provided. Total daily intake (method of double diets) and excretion (urinary and fecal) of trace elements (Ca, Mg, Zn, Fe, Cu, Mn, Mo, Cr and Se) were determined (ICP MS).

[7] = 15 days
Protocol: One sample of the solution was stored in the dark at 4° C. and 21° C. in the dark and a third sample was stored at 21° C. in daylight.
The Ultraviolet-visible spectrum of the formulation was initially measured at day 0 and then at day 15. 20 μl aliquots of sample solutions were taken at day 15. For each aliquot 960 μl of 50 mM TRIS buffer and 20 μl aliquot of Copper Nitrate standard (100 mM—Orion Research Inc) were added.

Tg2576 transgenic mice = conditions: oral treatment, nine weeks for clioquinol; cited from earlier work
[8] = test system: STZ-treated and normal rats; assay: Isolated working heart function after 7 weeks oral trientine
[9] = test system: STZ-treated and non-STZ-treated rats; assay: Left ventricular histology by LCM and TEM after oral trientine
humans with T2DM = assay: 6-month double-blind placebo-controlled oral trientine trial, LV mass by cardiac MRI
Source text: Subjects (30-70 y) who provided written informed consent were eligible for inclusion if they had:T2DM with HbA1c>7%; cardiac ejection fraction (echocardiography)≧45% with evidence of diastolic dysfunction but no regional wall-motion anomalies; no new medications for more than 6 months with no change of β-blocker dose; normal electrocardiogram (sinus rhythm, normal PR Interval, normal T wave and QRS configuration, and isoelectric ST segment); and greater than 90% compliance with single-blinded placebo therapy during a 2-w run-in period. Women were required to be post-menopausal, surgically sterile, or non-lactating and non-pregnant and using adequate contraception.
Before randomization, potentially eligible subjects entered a 4-w single blind run-in phase of two placebo-capsules twice-daily and underwent screening echocardiography, being excluded if regional wall motion abnormalities or impaired LV systolic function (ejection fraction <50%) were detected. In addition, LV diastolic filling was assessed using mitral inflow Doppler (with pre-load reduction) to ensure patients had abnormalities of diastolic filling; no patient with normal mitral filling proceeded to randomisation. […] The double-blind treatment was continued for 6 months in each subject.
At baseline and following 6 months' treatment, LV mass was determined using cardiac MRI, performed in the supine position with the same 1.5 T scanner (Siemens Vision) using a phased array surface coil. Prospectively gated cardiac cine images were acquired in 6 short axis and 3 long axis slices with the use of a segmented k-space pulse sequence (TR 8 ms; TE 5 ms; flip angle 10°; field of view 280-350 mm) with view sharing (11-19 frames.slice^−1). Each slice was obtained during a breath-hold of 15-19 heartbeats. The short axis slices spanned the left ventricle from apex to base with a slice thickness of 8 mm and inter-slice gap of 2-6 mm. The long axis slices were positioned at equal 60° intervals about the long axis of the LV. […] LV-mass and volume were calculated using guide point modeling, which produces precise and accurate estimations of mass and volume. Briefly, a three dimensional mathematical model of the LV was interactively fitted to the epicardial and endocardial boundaries of the LV wall in each slice of the study, simultaneously. Volume and mass were then calculated from the model by numerical integration (mass=wall volume×1.05 g.ml^−1). All measurements were performed by 1 measurer at the end of six months' data collection. Outcome analyses were conducted by intention-to-treat, using a maximum likelihood approach to impute missing at random data within a mixed model, and marginal least-squares adjusted-means were determined. Changes from baseline were compared between treatment-groups in the mixed model with baseline values entered as covariate. Since there were only 2 groups in the main effect and no interaction effect, no post hoc procedures were employed. In additional analysis the influence of clinically important differences between the treatment groups at baseline was considered by adjusting for them as covariates in an additional model. All P values were calculated from 2-tailed tests of statistical significance and a 5% significance level was maintained throughout. The effect of treatment on categorical variables was tested using the procedures of Mantel and Haenzel (SAS v8.01, SAS Institute).

Male Wistar rats = assay: Effects of streptozotocin (STZ) treatment in rats; format: in vivo, rat
Source text: Male Wistar rats (n=28, 303±2.9 g) were divided randomly into STZ-treated and non-treated groups. […] Non-treated animals received an equivalent volume of saline. […] Blood glucose and body weight were measure at day 3 following STZ/saline injection and then weekly throughout the study.

[10] = STZ-treated and non-STZ-treated rats
[11] = STZ-treated rats, oral trientine 7 weeks
[12] = STZ-treated animals n = 14, mean ± SEM

SMILES: NCCNCCNCCN [trientine dihydrochloride]
Cu excretion in urine versus saline at lowest dose ([1]; 0.1 mg.kg^−1 parenteral, rats): significantly increased
Effect on fecal Cu output ([2]; normal humans and those with T2DM, dihydrochloride): does not result in increased excretion of copper in the feces

SMILES: NCCNCCNCCN [trientine hydrochloride]
Stability of stock solutions on storage (copper chelation efficacy) ([3]; hydrochloride): without appreciable deterioration in efficacy

Maximum decrease of mean arterial pressure (MAP) [4]: 19±4 mmHg and 19+/−4 mmHg
Stability of stock solutions on storage (copper chelation efficacy) [3]: remains active as a copper chelator
Change in ability to chelate copper on storage ([7]; 100 mM in deionized water, 4° C. dark, 21° C. dark, 21° C. daylight): no detectable change
Effect of room light on copper chelation ([7]; 100 mM solution, 21° C., daylight): no detectable detrimental effect
Myocardium of trientine-treated non-STZ-treated rats [9]: appeared normal
SMILES: NCCNCCNCCN [trientine]
Urine excretion versus saline ([1]; 100 mg.kg^−1 dose, non-STZ-treated rats): increased urine excretion
Total copper excreted over the entire duration of the experiment versus saline controls [1, 10]: significantly increased
Urinary iron excretion versus saline [1, 10]: not increased
Serum Cu ([1]; STZ-treated rats, n = 6): 7.56 ± 0.06 μg · μl^−1 × 10^−4
Serum Fe ([1]; STZ-treated rats, n = 6): 35.7 ± 7.98 μg · μl^−1 × 10^−4
Urinary Cu excretion versus equivalent volume of saline ([1]; all doses 0.1, 1.0, 10, 100 mg.kg^−1 i.v., STZ-treated and non-STZ-treated rats): excreted more Cu
Urinary copper excretion per gram of bodyweight, STZ-treated versus non-STZ-treated ([1]; following trientine administration): greater per gram of bodyweight in STZ-treated
Serum Cu ([1]; non-STZ-treated rats, n = 4): 7.11 ± 0.41 μg · μl^−1 × 10^−4
Serum Fe ([1]; non-STZ-treated rats, n = 4): 33.6 ± 1.62 μg · μl^−1 × 10^−4
Cu content of heart tissue ([5]; STZ-treated rats): 24.7 ± 1.5 μg · g^−1 dry tissue
Fe content of heart tissue ([5]; STZ-treated rats): 186 ± 46 μg · g^−1 dry tissue
Effect on copper content of cardiac tissue ([5]; acute i.v. increasing doses, normal and STZ-treated rats): no significant effect
Cu content of heart tissue ([5]; non-STZ-treated rats): 27.1 ± 1.0 μg · g^−1 dry tissue
Fe content of heart tissue ([5]; non-STZ-treated rats): 235 ± 39 μg · g^−1 dry tissue
Mean trientine-evoked urinary Cu-excretion ([6]; T2DM, oral 2.4 g once-daily): 5.8 µmol/day
Urinary Cu, diabetic and control groups ([6]; day 7, oral 2.4 g): increased urinary Cu in both groups
Mean trientine-evoked urinary Cu-excretion ([6]; non-diabetic controls, oral 2.4 g once-daily): 4.1 µmol/day
Increase of trientine-evoked urinary Cu-excretion in T2DM compared to non-diabetic controls ([6]; oral 2.4 g once-daily): 40%
Trientine-evoked urinary Fe excretion ([6]; oral 2.4 g once-daily): no corresponding increase
Urinary Cu excretion, trientine-treated T2DM versus trientine-treated non-diabetic controls ([6]; single 2.4-g oral dose, day 7, P<0.05): significantly greater
Mean CU Losses, fecal, Post-Tment ([2]; control): 2.045 mg/day
Mean CU Losses, fecal, Post-Tment ([2]; diabetic): 1.965 mg/day
Effect on fecal outputs of Zn, Fe, Ca, Mg, Mn, Cr, Mb or Se ([2]; oral 2.4 g once daily): Neither diabetes nor trientine had measurable effects
Brain Aβ / amyloid deposition (Tg2576 transgenic mice): did not inhibit amyloid deposition
Cardiac function versus untreated STZ-treated controls [8, 11]: improved cardiac function
Cardiac output with increasing pre-load, after-load constant [8, 11]: restored to Sham values
Trientine treated STZ-treated hearts still functioning when 50% of untreated STZ-treated hearts had failed ([8]; increasing after-load, constant pre-load): about 90%
Effect on cardiac performance of normal animals ([8]; non-STZ-treated rats, oral trientine 7 weeks): no adverse effects on cardiac performance
Blood glucose profile versus untreated comparison group ([8]; oral trientine in drinking water weeks 7-13): made no difference
heart:body weight ratio in STZ-treated animals ([8]; oral trientine weeks 7-13 versus untreated STZ): small but significant improvement
Myocardial (LV) histology in STZ-treated rats ([9]; 7 weeks oral trientine): improved; also recorded: substantive recovery of LV structure
Adverse events during 6 months' therapy (humans with T2DM; 600 mg twice-daily oral): No significant trientine-related adverse events
Δ diastolic blood pressure (humans with T2DM; 6 months − baseline, mean): −3.9 mmHg
Δ systolic blood pressure (humans with T2DM; 6 months − baseline, mean): −3.5 mmHg
Δ urinary copper (humans with T2DM; 6 months − baseline, mean): -0.83 µmol/L
Δ left ventricular mass/body surface area (humans with T2DM; 6 months − baseline, mean, P<0.01 vs. placebo): −5.56** g · m^−2
Decrease of mean LV mass (humans with T2DM; diabetics, 600 mg twice-daily oral, 6 months): 5%

SMILES: CN(N=O)C(=O)N[C@H]1C(O)O[C@H](CO)[C@@H](O)[C@@H]1O (mixture of isomers) [STZ, streptozotocin]
Daily food consumption (Male Wistar rats; STZ 55 mg.kg^−1 i.v., n = 14, mean ± SEM): *58 ± 1 g
Heart rate (HR), control period prior to infusion (Male Wistar rats; STZ-treated anaesthetized rats): 287±11 bpm
Heart weight/body weight (Male Wistar rats; [12]): *2.93 ± 0.05 mg · g^−1
Wet heart weight (Male Wistar rats; [12]): *0.78 ± 0.02 g

SMILES: Oc1c(I)cc(Cl)c2cccnc12 [clioquinol]
Brain Aβ / amyloid deposition (Tg2576 transgenic mice): decrease in brain Aβ deposition
